According to patent US4107165A, “Tris[tetrahydroisoquinoline] compounds” (Endo Laboratories, priority 1976, dated 1978):
In brackets after ≈: the same amount, converted by molar mass. Where a name gives a salt, the structure may show the parent alone.

Test system: ADP-induced platelet aggregation and experimental thrombosis
Assay: not given
Conditions: literature; cited from earlier work

Molecule	effect against ADP-induced platelet aggregation and experimental thrombosis
OCCN(CCO)c1nc(N2CCCCC2)c2nc(N(CCO)CCO)nc(N3CCCCC3)c2n1 [dipyridamole, 2,2',2",2'"-[(4,8-dipiperidinopyrimido[5,4-d]pyrimidine-2,6-diyl)dinitrilo]tetraethanol, reference compound]	generally recognized as being effective against ADP-induced platelet aggregation and experimental thrombosis

Test system: fibrinolytic activity
Assay: not given
Conditions: prior art; cited from earlier work

Molecule	fibrinolytic activity in vivo
CCN(CC)CCOC(=O)c1ccc(N)cc1 [procaine]	Fibrinolytic activity in vivo can be induced
NCCc1c[nH]c2ccc(O)cc12 [serotonin]	Fibrinolytic activity in vivo can be induced
CNC[C@H](O)c1ccc(O)c(O)c1 [epinephrine]	Fibrinolytic activity in vivo can be induced
NCCc1c[nH]cn1 [histamine]	Fibrinolytic activity in vivo can be induced
O=C(O)c1cccnc1 [nicotinic acid]	Fibrinolytic activity in vivo can be induced
CCCCC1C(=O)N(c2ccccc2)N(c2ccccc2)C1=O [phenylbutazone]	Fibrinolytic activity in vivo can be induced

Test system: not given
Assay: not given
Conditions: prior art; cited from earlier work

Molecule	side effects in thrombolysis
Streptokinase: a streptococcal protein, has been used for thrombolysis	side effects of pyrogenicity and anaphylactic reactions

Test system: whole blood clot
Assay: whole blood clot lysis method (fibrinolytic activity), blood from rats given compound intraperitoneally
Type: in vivo
Conditions: Rattus norvegicus, ip, 4 h, intraperitoneal, blood diluted 1:10, clotted with thrombin, 37° C, four hours, read-out: ED50 (dose which causes lysis of 50% of the clot)
Method: Certain representative compounds within the scope of the present invention have been tested for fibrinolytic activity by the whole blood clot lysis method, as modified from the procedure of Billimoria et al.^1 In this method, blood from rats given a fibrinolytic compound intraperitoneally is taken and diluted 1:10. A standard amount is clotted with thrombin, incubated at 37° C for four hours, and the amount of clot that has lysed is determined. […] These ED50 values for the various compounds tested are set forth in the following table, each of the compounds being identified by name and by the number of the ensuing example in which its synthesis is described. […] ^1 Billimoria, […]., James, […]., Lancet II, 471 (1959)

Molecule	ED50 [mg/kg]
COc1cc2c(cc1OC)C(CCCCC(SCC1NCCc3cc(OC)c(OC)cc31)C1NCCc3cc(OC)c(OC)cc31)NCC2 (centres unmarked) [Example 6.1, 1,1'-[1-[(1,2,3,4-tetrahydro-6,7-dimethoxy-1-isoquinolinylmethyl)thio]pentamethylene]bis[1,2,3,4-tetrahydro-6,7-dimethoxyisoquinoline]]	< 0.6
COc1cc2c(cc1OC)C(CCC(CCC1NCCc3cc(OC)c(OC)cc31)CCC(C)(C)CC1NCCc3cc(OC)c(OC)cc31)NCC2 (centres unmarked) [Example 8.1, 1,1'-{2,2-dimethyl-5-[2-(1,2,3,4-tetrahydro-6,7-dimethoxy-1-isoquinolinyl)ethyl]heptamethylene}bis[1,2,3,4-tetrahydro-6,7-dimethoxyisoquinoline]]	< 0.4
COc1cc2c(cc1OC)C(CCCC(CCCC(CCCC1NCCc3cc(OC)c(OC)cc31)C1NCCc3cc(OC)c(OC)cc31)C1NCCc3cc(OC)c(OC)cc31)NCC2.Cl.Cl.Cl.Cl.O.O.O.O (centres unmarked) [Example 2.1, 1,1',1",1'"-(1,4,8,11-Undecanetetrayl)tetrakis[1,2,3,4-tetrahydro-6,7-dimethoxyisoquinoline] tetrahydrochloride tetrahydrate]	0.03
COc1cc2c(cc1OC)C(CCN(CCC1NCCc3cc(OC)c(OC)cc31)CCC1NCCc3cc(OC)c(OC)cc31)NCC2 (centres unmarked) [Example 17.3, 1,1',1"-(nitrilotriethylene)tris[1,2,3,4-tetrahydro-6,7-dimethoxyisoquinoline]]	0.7
COc1cc2c(cc1OC)[C@H](CCCC[C@H]1NCCc3cc(OC)c(OC)cc31)NCC2 [bisobrin dihydrochloride, 1,1'-tetramethylenebis[1,2,3,4-tetrahydro-6,7-dimethoxyisoquinoline], reference compound]	0.5
COc1ccc2c(c1)CCNC2CCCCC(CCC1NCCc2cc(OC)ccc21)CCC1NCCc2cc(OC)ccc21 (centres unmarked) [Example 10.1, 1,1'-{3-[2-(1,2,3,4-tetrahydro-6-methoxy-1-isoquinolinyl)ethyl]heptamethylene}bis[1,2,3,4-tetrahydro-6-methoxyisoquinoline]]	0.5
COc1cc2c(cc1OC)C(CCCC(CCCC1NCCc3cc(OC)c(OC)cc31)C1NCCc3cc(OC)c(OC)cc31)NCC2.Cl.Cl.Cl.O.O.O (centres unmarked) [Example 19.1, 1,1',1"-(1,4,7-HEPTANETRIYL)TRIS[1,2,3,4-TETRAHYDRO-6,7-DIMETHOXYISOQUINOLINE] TRIHYDROCHLORIDE TRIHYDRATE]	0.03
COc1cc2c(cc1OC)C(CCC(CCC(CCC1NCCc3cc(OC)c(OC)cc31)CCC1NCCc3cc(OC)c(OC)cc31)CCC1NCCc3cc(OC)c(OC)cc31)NCC2.Cl.Cl.Cl.Cl.O.O.O.O (centres unmarked) [Example 5.1, 1,1'-{3,6-bis[2-(1,2,3,4-tetrahydro-6,7-dimethoxy-1-isoquinolinyl)ethyl]-octamethylene}bis[1,2,3,4-tetrahydro-6,7-dimethoxyisoquinoline] tetrahydrochloride tetrahydrate]	0.06
COc1cc2c(cc1OC)C(CCCCC(CCCCC(CCCCC1NCCc3cc(OC)c(OC)cc31)C1NCCc3cc(OC)c(OC)cc31)C1NCCc3cc(OC)c(OC)cc31)NCC2 (centres unmarked) [Example 15.1, 1,1',1",1'"-(1,5,10,14-tetradecanetetrayl)tetrakis[1,2,3,4-tetrahydro-6,7-dimethoxyisoquinoline]]	0.04
COc1cc2c(cc1OC)C(CCOCC(COCCC1NCCc3cc(OC)c(OC)cc31)OCCC1NCCc3cc(OC)c(OC)cc31)NCC2.Cl.Cl.Cl (centres unmarked) [Example 17.1, 1,1',1"-[1,2,3-PROPANETRIYLTRI-(OXYETHYLENE)]TRIS[1,2,3,4-TETRAHYDRO-6,7-DIMETHOXYISOQUINOLINE] TRIHYDROCHLORIDE]	0.8
COc1cc2c(cc1OC)C(CCC(CCC(CC1NCCc3cc(OC)c(OC)cc31)c1ccccc1)CCC1NCCc3cc(OC)c(OC)cc31)NCC2 (centres unmarked) [Example 7.1, 1,1'-{2-phenyl-5-[2-(1,2,3,4-tetrahydro-6,7-dimethoxy-1-isoquinolinyl)ethyl]heptamethylene}bis[1,2,3,4-tetrahydro-6,7-dimethoxyisoquinoline]]	< 0.1
COc1cc2c(cc1OC)C(CCC(CCC1NCCc3cc(OC)c(OC)cc31)(CCC1NCCc3cc(OC)c(OC)cc31)[N+](=O)[O-])NCC2 (centres unmarked) [Example 18.1, 1,1'-{3-nitro-3-[2-(1,2,3,4-tetrahydro-6,7-dimethoxy-1-isoquinolinyl)ethyl]pentamethylene}bis[1,2,3,4-tetrahydro-6,7-dimethoxyisoquinoline]]	< 0.6
COc1cc2c(cc1OC)C(CCCC(CCCCC(CCCC1NCCc3cc(OC)c(OC)cc31)C1NCCc3cc(OC)c(OC)cc31)C1NCCc3cc(OC)c(OC)cc31)NCC2 (centres unmarked) [Example 16.1, 1,1',1",1'"-(1,4,9,12-dodecanetetrayl)tetrakis[1,2,3,4-tetrahydro-6,7-dimethoxyisoquinoline]]	0.03

Test system: ADP-induced platelet aggregation
Assay: inhibition of ADP-induced platelet aggregation in platelet rich plasma
Type: cell-based
Conditions: 5 min; human platelet rich plasma, 37° C, five minutes incubation prior to ADP; read-out: ED50 (amount which reduces platelet aggregation by 50%)
Method: Another selection of representative compounds within the scope of the present invention, including some listed in the previous table, have been tested for their ability to inhibit platelet aggregation. Citrated whole blood from human volunteers, who had not taken any medicine for the previous week, was centrifuged to obtain platelet rich plasma. On addition of ADP (adenosine diphosphate) to this platelet rich plasma, incubated at 37° C with constant stirring, in an aggregometer, optical density changes can be observed which are caused by platelet aggregation. Thus, the extent of ADP-induced platelet aggregation is determined for each sample of blood used. Compounds to be tested were incubated for five minutes prior to the addition of ADP. The ED50 of a compound is that amount, in γ/ml, which reduces platelet aggregation by 50% under the above conditions.

Molecule	IC50 [mg/L]
COc1cc2c(cc1OC)C(CCCCC(CCCCC(CCCCC1=NCCc3cc(OC)c(OC)cc31)C1=NCCc3cc(OC)c(OC)cc31)C1=NCCc3cc(OC)c(OC)cc31)=NCC2.Cl.Cl.Cl.Cl.O.O.O.O (centres unmarked) [Example 15.1a, 1,1',1",1'"-(1,5,10,14-tetradecanetetrayl)tetrakis[3,4-dihydro-6,7-dimethoxyisoquinoline] tetrahydrochloride tetrahydrate]	27
COc1cc2c(cc1OC)C(CCC(CCC1=NCCc3cc(OC)c(OC)cc31)CCC(CC1=NCCc3cc(OC)c(OC)cc31)c1ccccc1)=NCC2.Cl.Cl.Cl.O.O.O (centres unmarked) [Example 7.1a, 1,1'-{5-[2-(3,4-dihydro-6,7-dimethoxy-1-isoquinolinyl)ethyl]-2-phenylheptamethylene}bis[3,4-dihydro-6,7-dimethoxyisoquinoline] trihydrochloride trihydrate]	< 40
OCCN(CCO)c1nc(N2CCCCC2)c2nc(N(CCO)CCO)nc(N3CCCCC3)c2n1 [dipyridamole, 2,2',2",2'"-[(4,8-dipiperidinopyrimido[5,4-d]pyrimidine-2,6-diyl)dinitrilo]tetraethanol, reference compound]	270 (≈ 535 µM)
COc1cc2c(cc1OC)C(CCOCC(COCCC1=NCCc3cc(OC)c(OC)cc31)OCCC1=NCCc3cc(OC)c(OC)cc31)=NCC2 [Example 17.1a, 1,1',1"-[1,2,3-propanetriyltri(oxyethylene)]tris[3,4-dihydro-6,7-dimethoxyisoquinoline]]	< 40
COc1cc2c(cc1OC)C(CCC(CCC1NCCc3cc(OC)c(OC)cc31)(CCC1NCCc3cc(OC)c(OC)cc31)[N+](=O)[O-])NCC2 (centres unmarked) [Example 18.1, 1,1'-{3-nitro-3-[2-(1,2,3,4-tetrahydro-6,7-dimethoxy-1-isoquinolinyl)ethyl]pentamethylene}bis[1,2,3,4-tetrahydro-6,7-dimethoxyisoquinoline]]	9 (≈ 12.5 µM)
COc1cc2c(cc1OC)C(CCCCC(CCC1=NCCc3cc(OC)c(OC)cc31)CCC1=NCCc3cc(OC)c(OC)cc31)=NCC2.Cl.Cl.Cl.O.O.O [Example 1.1a, 1,1'-{3-[2-(3,4-dihydro-6,7-dimethoxy-1-isoquinolinyl)ethyl]heptamethylene}bis[3,4-dihydro-6,7-dimethoxyisoquinoline] trihydrochloride trihydrate]	< 40
COc1cc2c(cc1OC)C(CCCC(CCCC1=NCCc3cc(OC)c(OC)cc31)C1=NCCc3cc(OC)c(OC)cc31)=NCC2 [Example 19.1a, 1,1',1"-(1,4,7-heptanetriyl)tris[3,4-dihydro-6,7-dimethoxyisoquinoline]]	< 40
COc1cc2c(cc1OC)C(CCC(CCC1=NCCc3cc(OC)c(OC)cc31)(CCC1=NCCc3cc(OC)c(OC)cc31)[N+](=O)[O-])=NCC2.Cl.Cl.Cl [Example 18.1a, 1,1'-{3-[2-(3,4-dihydro-6,7-dimethoxy-1-isoquinolinyl)ethyl] -3-nitropentamethylene}bis[3,4-dihydro-6,7-dimethoxyisoquinoline] trihydrochloride]	6
